# Laboratory results taken from ChEMBL document CHEMBL1201862, “PubChem BioAssay data set” (2004).
#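 Briefly, cells in 96-well plates were exposed to five compound concentrations for 48 h, and endpoints were estimated by linear interpolation. Here, GI50 denotes the concentration required for 50% inhibition of growth.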 Activity calls are given as the source filed them. No stated cut-off is given here; in the data, active = GI50 up to about 1.1 µM and inactive = higher.
# Tests used:
# Test in all cases: growth of human tumour cells (NCI), 48 h
# A549 = test system: A549
# ACHN = test system: ACHN
# COLO 205 = test system: COLO 205
# HCT-116 = test system: HCT-116
# HCT-15 = test system: HCT-15
# HL-60 = test system: HL-60
# HT-29 = test system: HT-29
# Hs-578T = test system: Hs-578T
# M14 = test system: M14
# MCF7 = test system: MCF7
# MDA-MB-435 = test system: MDA-MB-435
# NCI-H23 = test system: NCI-H23
# OVCAR-4 = test system: OVCAR-4
# SF-268 = test system: SF-268
# SF-539 = test system: SF-539
# SK-MEL-2 = test system: SK-MEL-2
# SK-MEL-5 = test system: SK-MEL-5
# SW-620 = test system: SW-620
# UACC-62 = test system: UACC-62
# UO-31 = test system: UO-31
Structure (SMILES),GI50 (A549),GI50 (ACHN),GI50 (COLO 205),GI50 (HCT-116),GI50 (HCT-15) [µM],GI50 (HL-60),GI50 (HT-29),GI50 (Hs-578T),GI50 (M14),GI50 (MCF7),GI50 (MDA-MB-435),GI50 (NCI-H23),GI50 (OVCAR-4),GI50 (SF-268),GI50 (SF-539),GI50 (SK-MEL-2),GI50 (SK-MEL-5),GI50 (SW-620),GI50 (UACC-62),GI50 (UO-31)
Nc1ncc(Cc2nc3ccccc3s2)s1,69.8 µM (inactive),54.5 µM (inactive),34.4 µM (inactive),52.1 µM (inactive),> 100,> 100 µM (inactive),29.3 µM (inactive),15.1 µM (inactive),42.3 µM (inactive),35.6 µM (inactive),39.2 µM (inactive),> 10 µM (inactive),> 100 µM (inactive),> 100 µM (inactive),> 100 µM (inactive),> 100 µM (inactive),28.6 µM (inactive),> 100 µM (inactive),54 µM (inactive),68.9 µM (inactive)
OC1CCN2Cc3ccccc3N=C12 (stereo not given),> 100 µM (inactive),> 100 µM (inactive),> 100 µM (inactive),> 100 µM (inactive),> 100,> 100 µM (inactive),> 100 µM (inactive),> 100 µM (inactive),> 100 µM (inactive),> 100 µM (inactive),> 100 µM (inactive),> 100 µM (inactive),> 100 µM (inactive),> 100 µM (inactive),> 100 µM (inactive),> 100 µM (inactive),> 100 µM (inactive),> 100 µM (inactive),> 100 µM (inactive),> 100 µM (inactive)
CC(C)NCC(O)c1ccc(O)c2ncccc12 (stereo not given),6.82 µM (inactive),42.3 µM (inactive),18.7 µM (inactive),26.4 µM (inactive),25.9,24.6 µM (inactive),36.4 µM (inactive),> 100 µM (inactive),42.4 µM (inactive),7.28 µM (inactive),> 100 µM (inactive),11 µM (inactive),68.5 µM (inactive),35.3 µM (inactive),43 µM (inactive),52.8 µM (inactive),66.4 µM (inactive),36.5 µM (inactive),60 µM (inactive),67.6 µM (inactive)
CSc1nc(-c2ccccc2)nc(C(C#N)C#N)n1,> 100 µM (inactive),> 100 µM (inactive),> 100 µM (inactive),> 100 µM (inactive),> 100,> 100 µM (inactive),> 100 µM (inactive),> 100 µM (inactive),> 100 µM (inactive),> 100 µM (inactive),> 100 µM (inactive),> 100 µM (inactive),> 100 µM (inactive),> 100 µM (inactive),> 100 µM (inactive),> 100 µM (inactive),> 100 µM (inactive),> 100 µM (inactive),> 100 µM (inactive),61.2 µM (inactive)
Ic1cccc(/C=C/CN2CCN(CCOC(c3ccccc3)c3ccccc3)CC2)c1,17.5 µM (inactive),44.6 µM (inactive),8.51 µM (inactive),12.6 µM (inactive),14.2,8.91 µM (inactive),6.47 µM (inactive),28 µM (inactive),14.6 µM (inactive),14.6 µM (inactive),14.4 µM (inactive),16.2 µM (inactive),17.5 µM (inactive),27.2 µM (inactive),17.3 µM (inactive),17.7 µM (inactive),14.3 µM (inactive),26.7 µM (inactive),18.6 µM (inactive),13 µM (inactive)
CC(=O)Nc1ccc(C(=O)NN2C(=O)C(Cl)C2c2ccc(Cl)cc2)cc1 (stereo not given),> 72.4 µM (inactive),> 57.5 µM (inactive),> 100 µM (inactive),> 100 µM (inactive),> 100,> 100 µM (inactive),> 100 µM (inactive),8.83 µM (inactive),> 100 µM (inactive),> 100 µM (inactive),> 100 µM (inactive),44.8 µM (inactive),> 100 µM (inactive),23.3 µM (inactive),21.6 µM (inactive),41.6 µM (inactive),> 100 µM (inactive),> 100 µM (inactive),> 100 µM (inactive),> 100 µM (inactive)
COC(=O)NC1C(C)OC(OC2C/C=C(/C)C3C=CC4C(OC5CC(OC6CCC(OC7CC(O)C(OC8CCC(O)C(C)O8)C(C)O7)C(C)O6)C(OC(C)=O)C(C)O5)C(C)CC(C)C4C3(C)/C(O)=C3/C(=O)OC4(CC(C=O)=CC(O)C4/C=C\2C)C3=O)CC1(C)[N+](=O)[O-] (stereo not given),1.77 µM (inactive),1.02 µM (active),1.1 µM (active),0.69 µM (active),0.832,1.24 µM (inactive),1.1 µM (active),0.282 µM (active),1.07 µM (active),0.94 µM (active),0.382 µM (active),0.774 µM (active),1.82 µM (inactive),0.719 µM (active),0.34 µM (active),0.475 µM (active),0.82 µM (active),0.989 µM (active),0.552 µM (active),1.68 µM (inactive)
